Active and inactive are the calls of the source. The rule behind the calls is not given here.
How the values were obtained:
[1] = tested on: T1, Androgen receptor (Homo sapiens), P10275 [F877L]; assay: Antagonist activity at AR F877L mutant (unknown origin) transfected in human LNCAP cells cotransfected with ARE-LUC incubated for 20 to 24 hrs in presence of AR agonist R1881 by steady-glo luciferase reporter gene assay relative to control; format: cell-based; conditions: filed as antagonist, time 20-24 hrs
T1 sequence (whole entry): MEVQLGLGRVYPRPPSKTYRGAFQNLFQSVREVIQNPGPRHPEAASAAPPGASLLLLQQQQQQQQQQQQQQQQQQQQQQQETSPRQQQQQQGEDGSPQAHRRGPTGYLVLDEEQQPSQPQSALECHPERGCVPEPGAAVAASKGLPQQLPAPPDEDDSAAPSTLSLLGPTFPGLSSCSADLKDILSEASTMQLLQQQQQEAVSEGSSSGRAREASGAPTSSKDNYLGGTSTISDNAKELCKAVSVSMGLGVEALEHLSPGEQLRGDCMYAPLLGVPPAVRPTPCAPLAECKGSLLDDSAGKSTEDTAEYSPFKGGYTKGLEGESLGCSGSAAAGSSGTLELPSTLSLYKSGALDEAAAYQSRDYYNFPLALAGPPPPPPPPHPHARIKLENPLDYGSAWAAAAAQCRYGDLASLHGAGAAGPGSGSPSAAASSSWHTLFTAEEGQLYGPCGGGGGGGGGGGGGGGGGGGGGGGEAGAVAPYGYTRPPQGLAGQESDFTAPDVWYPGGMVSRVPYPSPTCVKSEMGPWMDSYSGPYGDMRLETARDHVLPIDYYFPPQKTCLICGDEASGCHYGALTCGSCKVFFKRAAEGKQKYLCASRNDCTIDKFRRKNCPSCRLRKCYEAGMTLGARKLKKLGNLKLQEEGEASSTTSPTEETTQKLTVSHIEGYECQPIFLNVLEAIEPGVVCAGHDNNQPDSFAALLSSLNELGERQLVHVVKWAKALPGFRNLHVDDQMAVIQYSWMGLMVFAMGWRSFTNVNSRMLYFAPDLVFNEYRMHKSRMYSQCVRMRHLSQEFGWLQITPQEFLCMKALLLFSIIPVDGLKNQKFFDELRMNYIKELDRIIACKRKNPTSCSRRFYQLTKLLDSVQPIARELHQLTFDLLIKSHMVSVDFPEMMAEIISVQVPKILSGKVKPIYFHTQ

[2] = Drug metabolism in dog liver microsomes assessed as unchanged parent compound at 10 uM incubated for 60 mins in presence of glutathione by LC-MS/MS analysis; format: ADME, Canis lupus familiaris, Microsome; conditions: read-out: Drug metabolism
[3] = Drug metabolism in dog liver microsomes assessed as unchanged parent compound at 10 uM incubated for 60 mins in presence of glutathione and NADPH by LC-MS/MS analysis; format: ADME, Canis lupus familiaris, Microsome; conditions: read-out: Drug metabolism
VCaP = assay: Antiproliferative activity against human VCaP cells expressing wild-type androgen receptor assessed as reduction in cell viability incubated for 5 days in presence of R1881 by CellTiter-glo assay; format: functional, cell-based; conditions: 120 h
[4] = target: T2, Androgen receptor (Rattus norvegicus) (UniProt P15207); conditions: Sprague-Dawley, dose 30.0 mg/kg, time 10.0 day
T2 sequence (whole entry): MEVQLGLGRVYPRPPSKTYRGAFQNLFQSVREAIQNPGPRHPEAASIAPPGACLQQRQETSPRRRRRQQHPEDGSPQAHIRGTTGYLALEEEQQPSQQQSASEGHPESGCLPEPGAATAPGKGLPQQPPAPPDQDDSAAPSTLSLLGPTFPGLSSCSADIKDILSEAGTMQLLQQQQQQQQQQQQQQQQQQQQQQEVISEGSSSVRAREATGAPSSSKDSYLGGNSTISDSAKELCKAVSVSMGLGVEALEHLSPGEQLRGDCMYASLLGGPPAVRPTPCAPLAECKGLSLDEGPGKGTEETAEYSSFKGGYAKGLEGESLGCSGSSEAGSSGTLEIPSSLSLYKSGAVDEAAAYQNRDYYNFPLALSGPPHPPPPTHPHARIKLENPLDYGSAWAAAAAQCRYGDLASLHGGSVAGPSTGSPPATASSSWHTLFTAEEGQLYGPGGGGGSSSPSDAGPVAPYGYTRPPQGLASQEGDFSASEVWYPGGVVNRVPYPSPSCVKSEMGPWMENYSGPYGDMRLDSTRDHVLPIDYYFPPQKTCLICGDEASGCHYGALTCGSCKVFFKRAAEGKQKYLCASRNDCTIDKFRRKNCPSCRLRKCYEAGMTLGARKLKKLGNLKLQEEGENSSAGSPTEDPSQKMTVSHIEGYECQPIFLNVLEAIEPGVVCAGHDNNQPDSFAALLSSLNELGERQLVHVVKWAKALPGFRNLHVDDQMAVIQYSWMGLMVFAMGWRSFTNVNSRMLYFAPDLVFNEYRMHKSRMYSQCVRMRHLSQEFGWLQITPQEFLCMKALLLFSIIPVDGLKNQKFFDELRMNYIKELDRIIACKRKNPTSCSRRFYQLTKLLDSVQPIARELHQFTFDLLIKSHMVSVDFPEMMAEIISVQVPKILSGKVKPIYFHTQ

[5] = target: T2, Androgen receptor (Rattus norvegicus); conditions: Sprague-Dawley, dose 30.0 mg/kg, time 10.0 day; remark: listed apart in the source
[6] = target: T2, Androgen receptor (Rattus norvegicus); conditions: Sprague-Dawley, dose 30.0 mg/kg, time 10.0 day; remark: listed apart in the source
[7] = target: T2, Androgen receptor (Rattus norvegicus); conditions: Sprague-Dawley, dose 30.0 mg/kg, time 10.0 day; remark: listed apart in the source
[8] = target: T2, Androgen receptor (Rattus norvegicus); conditions: Sprague-Dawley, dose 30.0 mg/kg, time 10.0 day; remark: listed apart in the source
[9] = Apparent passive permeability from apical to basolateral side in MDCK-MDR1 cells in presence P-gp inhibitor; format: ADME, cell-based, Canis lupus familiaris; conditions: dog, MDCK-MDR1, with P-gp inhibitor (name and concentration not stated)
[10] = AUC(0 to last) in CD1 mouse at 10 mg/kg, po; format: ADME, organism-based; parameters: route oral, time 0 - last, dose 10 mg/kg; conditions: CD1, mouse, in vivo
[11] = Cmax in CD1 mouse at 10 mg/kg, po; format: ADME, organism-based; parameters: route oral, dose 10 mg/kg; conditions: in vivo
[12] = Clearance in CD1 mouse at 2 mg/kg, iv; format: ADME, organism-based; conditions: in vivo
[13] = Half life in CD1 mouse at 2 mg/kg, iv; format: ADME, organism-based; conditions: in vivo
[14] = Volume of distribution at steady state in CD1 mouse at 2 mg/kg, iv; format: ADME, organism-based; conditions: in vivo, read-out: Vdss
[15] = Oral bioavailability in CD1 mouse at 10 mg/kg; format: ADME, organism-based; conditions: CD1, mouse, in vivo
[16] = tested on: liver microsomes (Homo sapiens); assay: Half life in human liver microsomes
LNCaP = assay: Antitumor activity against human LNCaP cells harboring AR F877L mutant xenografted in SCID mouse assessed as tumor growth inhibition at 30 mg/kg, po QD administered via gavage for 28 days and measured twice weekly relative to control; format: functional; conditions: time 28 day, read-out: TGI
[17] = Drug concentration in SCID mouse plasma xenografted with human LNCaP cells harboring AR F877L mutant at 30 mg/kg, po QD administered via gavage for 28 days; format: ADME, organism-based; conditions: time 28 day, read-out: Ct
Androgen receptor = Androgen receptor (Homo sapiens, UniProt P10275, F877L)

CN1CCC(Oc2ncc(N3C(=S)N(c4cnc(C#N)c(C(F)(F)F)c4)C(=O)C34CCC4)cn2)CC1
Imax [1]: > 90%

N#Cc1ncc(N2C(=O)C3(CCC3)N(c3ccc(O)nc3)C2=S)cc1C(F)(F)F
Imax [1]: > 90% | remaining at 1 h, 10 µM [2]: 100% | remaining at 1 h, 10 µM [3]: 100%

CNC(=O)c1ccc(N2C(=S)N(c3ccc(C#N)c(C(F)(F)F)c3)C(=O)C2(C)C)cc1F [ENZALUTAMIDE]
IC50 (VCaP): 149 nM | inhibition [4]: Active | inhibition [5]: Active | inhibition [6]: Active | inhibition [7]: Active | inhibition [8]: Active

Cc1cc(N2C(=O)C3(CCC3)N(c3ccc(OC4CCNCC4)nc3)C2=S)cnc1C#N
Imax [1]: > 90% | IC50 (VCaP): 264 nM | Papp A→B [9]: 3.38 ×10⁻⁶ cm/s | AUC(0-t) [10]: 7800 ng·h/mL | Cmax [11]: 1880 nM | clearance [12]: 19.4 mL/min/kg | half-life [13]: 3 h | Vd [14]: 4.35 L/kg | bioavailability [15]: 92% | half-life [16]: > 3 h

N#Cc1ncc(N2C(=O)C3(CCC3)N(c3ccc(OC4CCNCC4)nc3)C2=S)cc1C(F)(F)F [TRC-253]
Imax [1]: > 90% | IC50 (VCaP): 265 nM | inhibition in vivo at 30 mg/kg (LNCaP): 87% | concentration at […] [17]: 1750 ng/mL | remaining at 1 h, 10 µM [2]: 100% | remaining at 1 h, 10 µM [3]: 98.8% | Papp A→B [9]: 5.62 ×10⁻⁶ cm/s | AUC(0-t) [10]: 4900 ng·h/mL | Cmax [11]: 660 nM | clearance [12]: 15 mL/min/kg | half-life [13]: 5.99 h | Vd [14]: 6.11 L/kg | bioavailability [15]: 45% | inhibition [4]: Active | inhibition [5]: Active | inhibition [6]: Active | inhibition [7]: Active | inhibition [8]: Active | half-life [16]: > 3 h

N#Cc1ncc(N2C(=O)C3(CCC3)N(c3ccc(OC4CCNCC4)cc3)C2=S)cc1Cl
Imax [1]: > 90% | IC50 (VCaP): 503 nM | Papp A→B [9]: 12.2 ×10⁻⁶ cm/s | AUC(0-t) [10]: 4600 ng·h/mL | Cmax [11]: 780 nM | clearance [12]: 26.7 mL/min/kg | half-life [13]: 3.7 h | Vd [14]: 8.47 L/kg | bioavailability [15]: 50% | EC50 (Androgen receptor): 45 nM | inhibition [4]: Active | inhibition [5]: Active | inhibition [6]: Active | inhibition [7]: Active | inhibition [8]: Active | half-life [16]: > 3 h

N#Cc1ncc(N2C(=O)C3(CCC3)N(c3ccc(CN4CCNCC4)cc3)C2=S)cc1C(F)(F)F
Imax [1]: > 90% | IC50 (VCaP): 2780 nM | Papp A→B [9]: 6.31 ×10⁻⁶ cm/s | AUC(0-t) [10]: 8700 ng·h/mL | Cmax [11]: 840 nM | clearance [12]: 18.2 mL/min/kg | half-life [13]: 12.1 h | Vd [14]: 16.8 L/kg | bioavailability [15]: 97% | inhibition [4]: inactive | inhibition [5]: inactive | inhibition [6]: inactive | inhibition [7]: inactive | inhibition [8]: inactive | half-life [16]: > 3 h

COc1cc(N2C(=O)C3(CCC3)N(c3ccc(OC4CCN(C)CC4)cc3)C2=S)cnc1C#N
Imax [1]: > 90% | IC50 (VCaP): 263 nM | AUC(0-t) [10]: 20100 ng·h/mL | Cmax [11]: 2800 nM | clearance [12]: 6.9 mL/min/kg | half-life [13]: 7.8 h | Vd [14]: 3.7 L/kg | bioavailability [15]: 87% | EC50 (Androgen receptor): 649 nM | inhibition [4]: Active | inhibition [5]: Active | inhibition [6]: Active | inhibition [7]: Active | inhibition [8]: Active | half-life [16]: 1.9 h

CN1CCC(Oc2ccc(N3C(=S)N(c4cnc(C#N)c(C(F)(F)F)c4)C(=O)C34CCC4)cn2)CC1
Imax [1]: > 90% | IC50 (VCaP): 394 nM | Papp A→B [9]: 16.2 ×10⁻⁶ cm/s | AUC(0-t) [10]: 10900 ng·h/mL | Cmax [11]: 1300 nM | clearance [12]: 8.14 mL/min/kg | half-life [13]: 12.5 h | Vd [14]: 7.69 L/kg | bioavailability [15]: 56% | half-life [16]: 2.88 h

N#Cc1ncc(N2C(=O)C3(CCC3)N(c3cnc(OC4CCNCC4)nc3)C2=S)cc1C(F)(F)F
Imax [1]: 67%

N#Cc1ncc(N2C(=O)C3(CCC3)N(c3ccc(OC4CCNCC4)nc3)C2=S)cc1Cl
Imax [1]: > 90% | IC50 (VCaP): 250 nM | Papp A→B [9]: 11.5 ×10⁻⁶ cm/s | AUC(0-t) [10]: 6000 ng·h/mL | Cmax [11]: 1880 nM | clearance [12]: 25.4 mL/min/kg | half-life [13]: 4.1 h | Vd [14]: 6.92 L/kg | bioavailability [15]: 118% | inhibition [4]: Active | inhibition [5]: Active | inhibition [6]: Active | inhibition [7]: Active | inhibition [8]: Active | half-life [16]: > 3 h

N#Cc1ncc(N2C(=O)C3(CCC3)N(c3ccc(O)cc3)C2=S)cc1C(F)(F)F
remaining at 1 h, 10 µM [3]: 91.9%
